Laboratory results as given in ChEMBL document CHEMBL1137776, “Structural assessment and biological evaluation of two N3S bombesin derivatives” (J Med Chem, 2009).

Target: Gastrin-releasing peptide receptor (Homo sapiens, UniProt P30550)
Assay: Displacement of [125I-Tyr4]BN form BB2 receptor in human PC3 cells
Type: cell-based, PC-3

Sequence of Gastrin-releasing peptide receptor (P30550 whole entry): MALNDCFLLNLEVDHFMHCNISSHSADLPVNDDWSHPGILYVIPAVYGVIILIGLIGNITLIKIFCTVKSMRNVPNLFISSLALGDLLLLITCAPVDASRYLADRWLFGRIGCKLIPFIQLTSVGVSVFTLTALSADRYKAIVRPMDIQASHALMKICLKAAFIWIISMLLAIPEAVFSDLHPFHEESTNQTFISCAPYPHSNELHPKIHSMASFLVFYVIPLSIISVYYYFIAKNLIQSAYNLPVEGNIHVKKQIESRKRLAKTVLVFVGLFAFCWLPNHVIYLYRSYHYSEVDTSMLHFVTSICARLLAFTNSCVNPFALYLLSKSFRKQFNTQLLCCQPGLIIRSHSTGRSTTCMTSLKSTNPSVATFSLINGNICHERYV

CSCC[C@H](NC(=O)[C@H](CC(C)C)NC(=O)[C@H](Cc1cnc[nH]1)NC(=O)CNC(=O)[C@@H](NC(=O)[C@H](C)NC(=O)[C@H](Cc1c[nH]c2ccccc12)NC(=O)[C@H](CCC(N)=O)NC(=O)[C@H](CC(N)=O)NC(=O)CNC(=O)[C@H](CC(C)C)NC(=O)[C@H](CCCNC(=N)N)NC(=O)[C@H](CCC(N)=O)NC(=O)CCCCCNC(=O)[C@H](CS)NC(=O)CNC(=O)CN)C(C)C)C(N)=O
IC50: 0.59 nM

CSCC[C@H](NC(=O)[C@H](CC(C)C)NC(=O)[C@H](Cc1cnc[nH]1)NC(=O)CNC(=O)[C@@H](NC(=O)[C@H](C)NC(=O)[C@H](Cc1c[nH]c2ccccc12)NC(=O)[C@H](CCC(N)=O)NC(=O)CCCCCNC(=O)[C@H](CS)NC(=O)CNC(=O)CN)C(C)C)C(N)=O
IC50: 1.45 nM
